Results on one molecule are retold here after the NIST ThermoML archive (doi:10.1016/j.jct.2019.03.012).

± gives the expanded uncertainty stated by the source.

The nature of data set [1]: Molar enthalpy of transition or fusion. To be noted: Crystal 1; DSC.
For data set [2] the following is noted: DSC.

Turning to `CC[NH3+].O=[N+]([O-])[O-]` [ethylammonium nitrate], the “Molar enthalpy of transition or fusion” value in data set [1] came out at 3.15 ± 0.155 kcal/mol. The Triple point temperature in data set [2] (Crystal 1) stood at 285.15 ± 6 K. Also, in data set [2] (Glass), the Glass transition temperature was -41.00 ± 6 °C.
